Counter-ions that a name gives are not always drawn. Like-named read-outs stand apart in the source and are kept apart here.
What was measured:
male NMRI-mice = assay: minimum symptom dose (Campbell and Richter); format: in vivo; details: i.p., changes in behavior in 2 out of 3 mice
Method: The minimum symptom dose is determined in male NMRI-mice (body weight range 18-22 g) according to the procedure of Campbell and Richter (see D. E. S. Campbell and W. Richter, Acta Pharmacol. Toxicol. 25 (1967), pp. 345-363). The minimum symptom dose is defined as that dose in μmol/kg which after i.p. administration causes changes in behavior in 2 out of 3 mice. The minimum symptom dose is a measure for evaluations undesirable side effects.

[1] = acute toxicity (LD50) in mice; format: in vivo; details: mouse, in vivo, male NMRI-mice, mortality on 7th day
Method: The acute toxicity of the compounds is determined in male NMRI-mice (body weight range 18-22 g) after oral (p.o.) and intraperitonal (i.p.) administration. The LD50 is defined as that dose in μmol/kg which causes a 50% mortality rate of the test animals on the 7th day after application. The calculation of the LD50 is carried out by probitanalysis (see L. Cavalli-Sforza, Grundbegriffe der Biometric, Gustav Fischer Verlag Stuttgart (1964)).

[2] = tested on: male Wista rats (aconitine); assay: aconitine infusion in rats, heart rhythm disruption (Raschak); format: in vivo; details: 1/20th of the LD50, concurrent aconitine infusion, time difference vs control
Method: To determine the influence of the active ingredient on male Wista rats (weighing 280 to 350 g), infusion with aconitine according to the method of Raschak is carried out (M. Raschak, Arzneim. Forschung (Drug Research) 25 (4) (1975) pp. 639-641). The results are given as the difference (that is, the difference in time as Δ%) between the active substance and a control sample in bringing about a disruption of heart rhythms (extrasystolic (ES), ventricular tachicardiea (VT), chamber flutter (KF)). In the control sample the active ingredient is replaced by a vehicle such as isotonic NaCl-solution or solution medium. The administration of the active ingredient is in a dosage of 1/20th of the LD50 and a constant concurrent infusion per unit of time of aconitine.

isolated left atria = assay: functional refractory period (FRP) and contraction force (CF) in isolated left atria, double stimulus method of Govier; set-up: species or system female guinea pigs; details: for ratio between contraction force-reducing dose and functional refractory period-prolonging dose: CF/FRP, indication of therapeutic range, 18 min; for EC (FRP prolonged to 125%) / IC25: Cavia porcellus, 0.3 h, isolated left atria of guinea pig, 18 minutes after application; for EC (FRP prolonged to 125%): read-out: concentration prolonging functional refractory period (FRP) to 125% of starting value; for IC25: read-out: concentration reducing contraction force (CF) to 75% of starting value
Method: The prolongation of the functional refractory period (FRP) and the contraction force (CF) in the isolated left atria of female guinea pigs (albinopirbright-white guinea pigs, body weight range 300-400 g) are determined according to the double stimulus method of Govier (see W. C. Govier, J. Pharmakol, Exp. Ther. 148 (1965) pp. 100-105). The concentrations which are given in the table below are the concentrations in […] which 18 minutes after application leads to a prolongation of the functional refractory period to 125% or respectively to a reduction of the contraction force to 75% of the starting value. Furthermore the ratio between contraction force-reducing dose and functional refractory period-prolonging dose is given. This ratio is an indication of the therapeutic range of the antiarrhythmic effect on the isolated organ (see K. Greef, Verh. Dtsch. Ges. Kreislaufforsch. 35 (1969) pp. 88-97).

Question: Which results are given for `CCC1C2CC3C4N(C)c5ccc(Br)cc5C45CC(C2C5O)[N+]3(CCN2CCCC2)C1O` (centres unmarked) [Example 8.b, Nb-(2-(1-pyrrolidinyl)ethyl)-10-bromoisoajmalinium bishydrogen tartrate]?
Answer: Min. Symptom-dose (male NMRI-mice): 31 µmol/kg; LD50 at 168 h ([1]; ip, i.p., read-out: LD50 i.p.): 115 µmol/kg; LD50 at 168 h ([1]; po, p.o., read-out: LD50 p.o.): 394 µmol/kg; Aconitin-Rat, ES (extrasystolic), Δ % [2]: +212%; Aconitin-Rat, KF (chamber flutter), Δ % [2]: +129%; Aconitin-Rat, VT (ventricular tachycardia), Δ % [2]: > +149%; ratio between contraction force-reducing dose and functional refractory period-prolonging dose (isolated left atria): 2.3; EC (FRP prolonged to 125%) (isolated left atria): 0.9 µM; IC25 (isolated left atria): 2000 nM

Question: Which “Min. Symptom-dose” value (male NMRI-mice) does the source give for `CCC1C2CC3C4N(C)c5ccc(Br)cc5C45CC(C2C5O)[N+]3(CCN2CCCCC2)C1O` (centres unmarked) [Example 9.b, Nb-(2-(1-piperidinyl)ethyl)-10-bromoisoajmalinium bishydrogen tartrate] here?
Answer: The value was 31 µmol/kg.

Question: And the LD50 at 168 h ([1]; ip, i.p., read-out: LD50 i.p.)?
Answer: The LD50 at 168 h was 60 µmol/kg.

Question: What about the LD50 at 168 h ([1]; po, p.o., read-out: LD50 p.o.) of the same compound?
Answer: The LD50 at 168 h was 148 µmol/kg.

Question: What about the “Aconitin-Rat, ES (extrasystolic), Δ %” value [2] of the same compound?
Answer: Its value is “+151%”.

Question: And the “Aconitin-Rat, KF (chamber flutter), Δ %” value [2]?
Answer: Its value is “+95%”.

Question: What about the “Aconitin-Rat, VT (ventricular tachycardia), Δ %” value (from here on “Aconitin-Rat, VT … Δ %”) [2] of the same compound?
Answer: Its value is “+52%”.

Question: And the “ratio between contraction force-reducing dose and functional refractory period-prolonging dose” value (isolated left atria)?
Answer: The value was 0.7.

Question: And the EC (FRP prolonged to 125%) (isolated left atria)?
Answer: The EC (FRP prolonged to 125%) was 2.3 µM.

Question: And the IC25 (isolated left atria)?
Answer: Its IC25 is 1400 nM.

Question: With `CCC1C2CC3C4N(C)c5ccc(Br)cc5C45CC(C2C5O)[N+]3(CCN2CCOCC2)C1O` (centres unmarked) [Example 10, Nb-[2-(4-morpholinyl)ethyl]-10-bromoisoajmalinium-chloride] as the compound, how does the “Min. Symptom-dose” value (male NMRI-mice) read?
Answer: The value was 22 µmol/kg.

Question: And the LD50 at 168 h ([1]; ip, i.p., read-out: LD50 i.p.)?
Answer: Its LD50 at 168 h is 45 µmol/kg.

Question: And the LD50 at 168 h ([1]; po, p.o., read-out: LD50 p.o.)?
Answer: The LD50 at 168 h was 470 µmol/kg.

Question: What about the “Aconitin-Rat, ES (extrasystolic), Δ %” value [2] of the same compound?
Answer: The value was “+67%”.

Question: And the “Aconitin-Rat, KF (chamber flutter), Δ %” value [2]?
Answer: Its value is “+43%”.

Question: What about the “Aconitin-Rat, VT … Δ %” value [2] of the same compound?
Answer: The value was “+69%”.

Question: And the “ratio between contraction force-reducing dose and functional refractory period-prolonging dose” value (isolated left atria)?
Answer: The value was 12.9.

Question: What about the EC (FRP prolonged to 125%) (isolated left atria) of the same compound?
Answer: The EC (FRP prolonged to 125%) was 0.2 µM.

Question: What about the IC25 (isolated left atria) of the same compound?
Answer: The IC25 was 2100 nM.

Question: With `CCC1C2CC3C4N(C)c5ccc(Br)cc5C45CC(C2C5O)[N+]3(C)C1O` (centres unmarked) [Example 11.b, Nb-methyl-10-bromoisoajmalinium hydrogen tartrate] as the compound, how does the “Min. Symptom-dose” value (male NMRI-mice) read?
Answer: The value was 88 µmol/kg.

Question: And the LD50 at 168 h ([1]; ip, i.p., read-out: LD50 i.p.)?
Answer: The LD50 at 168 h was 190 µmol/kg.

Question: And the LD50 at 168 h ([1]; po, p.o., read-out: LD50 p.o.)?
Answer: Its LD50 at 168 h is 1290 µmol/kg.

Question: What about the “Aconitin-Rat, ES (extrasystolic), Δ %” value [2] of the same compound?
Answer: The value was “+85%”.

Question: What about the “Aconitin-Rat, KF (chamber flutter), Δ %” value [2] of the same compound?
Answer: Its value is “+52%”.

Question: What about the “Aconitin-Rat, VT … Δ %” value [2] of the same compound?
Answer: The value was “+73%”.

Question: What about the “ratio between contraction force-reducing dose and functional refractory period-prolonging dose” value (isolated left atria) of the same compound?
Answer: Its value is 1.3.

Question: What about the EC (FRP prolonged to 125%) (isolated left atria) of the same compound?
Answer: The EC (FRP prolonged to 125%) was 7.2 µM.

Question: What about the IC25 (isolated left atria) of the same compound?
Answer: The IC25 was 9000 nM.

Question: Which “Min. Symptom-dose” value (male NMRI-mice) does the source give for `CCC1C2CC3C4N(C)c5ccc(Br)cc5C45CC(C2C5O)[N+]3(CC)C1O` (centres unmarked) [Example 12.b, Nb-ethyl-10-bromo-isoajmalinium hydrogen tartrate] here?
Answer: The value was 21 µmol/kg.

Question: What about the LD50 at 168 h ([1]; ip, i.p., read-out: LD50 i.p.) of the same compound?
Answer: The LD50 at 168 h was 122 µmol/kg.

Question: And the LD50 at 168 h ([1]; po, p.o., read-out: LD50 p.o.)?
Answer: The LD50 at 168 h was 1430 µmol/kg.

Question: What about the “Aconitin-Rat, ES (extrasystolic), Δ %” value [2] of the same compound?
Answer: The value was “+52%”.

Question: And the “Aconitin-Rat, KF (chamber flutter), Δ %” value [2]?
Answer: Its value is “+39%”.

Question: And the “Aconitin-Rat, VT … Δ %” value [2]?
Answer: The value was “+55%”.

Question: What about the “ratio between contraction force-reducing dose and functional refractory period-prolonging dose” value (isolated left atria) of the same compound?
Answer: The value was 0.9.

Question: What about the EC (FRP prolonged to 125%) (isolated left atria) of the same compound?
Answer: Its EC (FRP prolonged to 125%) is 1.5 µM.

Question: What about the IC25 (isolated left atria) of the same compound?
Answer: Its IC25 is 1400 nM.

Question: For `CCC[N+]12C(O)C(CC)C3CC1C1N(C)c4ccc(Br)cc4C14CC2C3C4O` (centres unmarked) [Example 13.b, Nb-propyl-10-bromoisoajmalinium hydrogen tartrate], which “Min. Symptom-dose” value (male NMRI-mice) is on record?
Answer: The value was 42 µmol/kg.

Question: And the LD50 at 168 h ([1]; po, p.o., read-out: LD50 p.o.)?
Answer: Its LD50 at 168 h is 437 µmol/kg.

Question: What about the “Aconitin-Rat, ES (extrasystolic), Δ %” value [2] of the same compound?
Answer: The value was “+110%”.

Question: And the “Aconitin-Rat, KF (chamber flutter), Δ %” value [2]?
Answer: Its value is “+110%”.

Question: What about the “Aconitin-Rat, VT … Δ %” value [2] of the same compound?
Answer: The value was “+130%”.

Question: And the “ratio between contraction force-reducing dose and functional refractory period-prolonging dose” value (isolated left atria)?
Answer: The value was 2.4.

Question: And the EC (FRP prolonged to 125%) (isolated left atria)?
Answer: Its EC (FRP prolonged to 125%) is 0.6 µM.

Question: What about the IC25 (isolated left atria) of the same compound?
Answer: The IC25 was 1500 nM.

— US4554274A, “Nb Quaternary derivatives of ajmaline and isoajmaline, methods and intermediate products in the manufacture of their derivatives and method of using same and pharmaceutical compositions thereof” (priority 1979, dated 1985)
